Article PMC6792352, “Limited Chemical Structural Diversity Found to Modulate Thyroid Hormone Receptor in the Tox21 Chemical Library” (Environmental Health Perspectives, 2019)
Where a name gives a salt, the structure may show the parent alone.

Assay: in vitro
Conditions: rat, gh3-tre-luc cells

Structure (SMILES) | CC50 at 24 h (AC50 (uM) modified / 1000) [µM] | other results
CCCCCC(=O)O [Hexanoic acid] | > 90 | –
CN(Cc1cc(Br)cc(Br)c1N)C1CCCCC1 [Bromhexine hydrochloride] | 42.9 | –
CCNCC [Diethylamine] | > 100 | –
CC(CN(C)C)CN1c2ccccc2S(=O)(=O)c2ccccc21 (centres unmarked) [Oxomemazine hydrochloride] | 37.7 | –
CC(=O)OC[C@H]1O[C@@H](O[C@H]2[C@H](O)[C@@H](OC(=O)c3ccccc3C(=O)O)[C@H](O)O[C@@H]2COC(C)=O)[C@H](O)[C@@H](OC(=O)c2ccccc2C(=O)O)[C@@H]1O [Cellulose acetate phthalate] | > 50 | –
CCNc1ccccc1 [N-Ethylaniline] | > 90 | –
CNCCCC1c2ccccc2C=Cc2ccccc21 [Protriptyline hydrochloride] | 7.1 | –
Cc1cc(O)cc2c1O[C@](C)(CCC[C@H](C)CCC[C@H](C)CCCC(C)C)CC2 [D-delta-Tocopherol] | > 50 | –
CCN(Cc1cccc(S(=O)(=O)O)c1)c1ccccc1 [3-((Ethylphenylamino)methyl)benzenesulfonic acid] | > 90 | –
CC1=C(O)C(=O)CO1 [4-Hydroxy-5-methyl-3-furanone] | > 90 | –
CCNCC(O)c1cccc(O)c1 (centres unmarked) [Etilefrine hydrochloride] | > 20 | –
CCN1/C(=C/C=C/C=C/c2sc3ccccc3[n+]2CC)Sc2ccccc21 [Dithiazanine iodide] | 4.14 | –
CC[C@H]1C[C@H]2[C@@H]3CCC4=CC(=O)CC[C@@H]4[C@H]3CC[C@]2(C)[C@H]1O [Oxendolone] | > 50 | –
CCOC(=O)CCCCCCCCC(=O)OCC [Diethyl decanedioate] | > 90 | –
O=C(O)CF [Sodium fluoroacetate] | > 90 | –
C[N+]1(C)[C@@H]2CC[C@H]1CC(OC(=O)c1c[nH]c3ccccc13)C2 (some centres unmarked) [Tropisetron methyliodide] | > 50 | –
Cc1cccc(C)c1N [2,6-Dimethylaniline] | > 90 | –
CC1(C)[C@@H]2CC[C@@]1(C)[C@H](O)C2 [Isoborneol] | > 90 | –
CCN(CC)CCCC(C)Nc1c2ccc(Cl)cc2nc2ccc(OC)cc12 (centres unmarked) [Quinacrine dihydrochloride dihydrate] | > 50 | –
Nc1ncnc2c1ncn2[C@@H]1O[C@H](CO)[C@@H](O)[C@H]1O [Adenosine] | > 50 | –
CC(=O)CC(=O)Nc1ccc(S(=O)(=O)O)cc1 [Potassium 4-[(3-oxobutanoyl)amino]benzenesulfonate] | > 90 | –

Structure (SMILES) | CC50 at 24 h (AC50 (uM) modified / 1000) [µM] | other results
C[C@@H](O)[C@H]1C(=O)N2C(C(=O)O)=C(SCCN=CN)C[C@H]12 [Imipenem] | > 20 | –
ClC1=C(Cl)C2(Cl)C(CBr)CC1(Cl)C2(Cl)Cl (centres unmarked) [Bromociclen] | – | CC50 at 24 h (AC50 (uM) modified / 1000, Tox21_110001=Tox21_112345, viability, 1 nM T3 present, 24 h): 22.4 µM; CC50 at 24 h (AC50 (uM) modified / 1000, Tox21_110001=Tox21_301856, viability, 1 nM T3 present, 24 h): 36.9 µM
CC(=O)CCCCn1c(=O)c2c(ncn2C)n(C)c1=O [Pentoxifylline] | > 20 | –
CC[C@@H]1C(=O)OC[C@@H]1Cc1cncn1C [Pilocarpine] | > 50 | –
COc1c(O)cc2c(c1O)[C@@H]1O[C@H](CO)[C@@H](O)[C@H](O)[C@H]1OC2=O [Bergenin monohydrate] | > 20 | –
CC/C=C\C/C=C\C/C=C\C/C=C\C/C=C\CCCC(=O)O [Eicosapentaenoic acid] | > 50 | –
N#Cc1ccccc1O [2-Hydroxybenzonitrile] | > 90 | –
CCCCCCCCC(=O)OCC [Ethyl nonanoate] | > 90 | –
CC1COC(Cn2cncn2)(c2ccc(Oc3ccc(Cl)cc3)cc2Cl)O1 (centres unmarked) [Difenoconazole] | 41.3 | –
CCCC1COC(Cn2cncn2)(c2ccc(Cl)cc2Cl)O1 (centres unmarked) [Propiconazole] | 61 | –
CC(C)S [Isopropyl mercaptan] | > 90 | –
CCC(CO)(CO)CO [2-Ethyl-2-(hydroxymethyl)-1,3-propanediol] | > 100 | –
C[C@@H]1C[C@H]2[C@@H]3C[C@H](F)C4=CC(=O)C(Cl)=C[C@]4(C)[C@@]3(F)[C@@H](O)C[C@]2(C)[C@@]1(O)C(=O)CO [Halometasone hydrate] | > 50 | –
C=CCCCCCCCCOC(C)=O [9-Decenyl acetate] | > 90 | –
NNC(=O)CP(=O)(c1ccccc1)c1ccccc1 [Fosenazide] | > 50 | –
CCCCCCOc1ccccc1C(N)=O [Exalamide] | > 50 | –
CNC(=O)Oc1cccc2c1OC(C)(C)C2 [Carbofuran] | > 90 | –
CCON=O [Ethyl nitrite] | – | CC50 at 24 h (AC50 (uM) modified / 1000, Tox21_110001=Tox21_112368, viability, 1 nM T3 present, 24 h): > 50 µM
CC(C)C(=O)OC/C=C/c1ccccc1 [3-Phenylprop-2-en-1-yl 2-methylpropanoate] | > 90 | –
CC(=O)[C@@]1(O)CC[C@H]2[C@@H]3C=C(Cl)C4=CC(=O)CC[C@]4(C)[C@H]3CC[C@@]21C [Chlormadinone] | > 50 | –
O=S(=O)(O)c1ccccc1 [Benzenesulfonic acid] | > 90 | –

Structure (SMILES) | CC50 at 24 h (AC50 (uM) modified / 1000) [µM] | other results
COc1cc(C(=O)NC2CCN(C)CC2)ccc1Nc1ncc2c(n1)N(C1CCCC1)CC(F)(F)C(=O)N2C [PharmaGSID_48511] | 1.83 | –
Cc1cc(C)c(/C=C2\C(=O)Nc3ccccc32)[nH]1 [SU-5416] | > 50 | –
COc1ccc(-c2cc(C(F)F)nn2-c2ccc(S(N)(=O)=O)cc2)cc1F [Deracoxib] | > 50 | –
c1cnc2cc3c(cc2n1)[C@@H]1CNC[C@H]3C1 [Varenicline tartrate] | > 50 | –
CO[C@H]1C[C@H](O[C@H]2[C@H](C)[C@@H](O[C@@H]3O[C@H](C)C[C@H](N(C)C)[C@H]3O)[C@@H](C)C[C@@]3(CO3)C(=O)[C@H](C)[C@@H](O)[C@@H](C)[C@@H](C)OC(=O)[C@@H]2C)O[C@@H](C)[C@@H]1O [Oleandomycin phosphate] | > 20 | –
c1ccc(CC2=NCCN2)cc1 [Tolazoline hydrochloride] | > 20 | –
CCCCC(CC)CNCC(CC)CCCC (centres unmarked) [Bis-2-ethylhexylamine] | > 90 | –
C=CC(=O)OC(C)(C)C [tert-Butyl acrylate] | > 90 | –
O=C(Cl)CCl [Chloroacetyl chloride] | > 90 | –
CCCCCCCCCCCCCCN(CCO)CCO [2,2'-(Tetradecylimino)diethanol] | 23.3 | –
O=C1c2c(O)cccc2C([C@@H]2O[C@H](CO)[C@@H](O)[C@H](O)[C@H]2O)c2cc(CO)cc(O)c21 (some centres unmarked) [Aloin] | > 50 | –
NCCC(O)(P(=O)(O)O)P(=O)(O)O [Pamidronic acid] | > 50 | –
C=C(C)C(=O)OCC(CC)CCCC (centres unmarked) [2-Ethylhexyl methacrylate] | > 90 | –
N=c1nc(N2CCCCC2)cc(N)n1O [Minoxidil] | > 50 | –
NC(CS)C(=O)O (racemic) [DL-Cysteine] | > 50 | –
CC(=O)Nc1c(I)c(C(=O)N[C@H]2C(O)O[C@H](CO)[C@@H](O)[C@@H]2O)c(I)c(N(C)C(C)=O)c1I (some centres unmarked) [Metrizamide] | > 20 | –
CC1=C(C(=O)Nc2ccccc2)SCCO1 [Carboxin] | > 90 | –
Cc1ccc2ccc3cccc4ccc1c2c34 [1-Methylpyrene] | > 90 | –
Cl[C@H]1[C@H](Cl)[C@@H](Cl)[C@H](Cl)[C@@H](Cl)[C@@H]1Cl [beta-Hexachlorocyclohexane] | > 90 | –
COC(C)CCO (centres unmarked) [3-Methoxybutan-1-ol] | > 90 | –
CN(C)CCO [Dimethylaminoethanol] | > 90 | –

Structure (SMILES) | CC50 at 24 h (AC50 (uM) modified / 1000) [µM] | other results
CCCCC(CC)COC(=O)C(C#N)=C(c1ccccc1)c1ccccc1 (centres unmarked) [2-Ethylhexyl-2-cyano-3,3-diphenylacrylate] | > 90 | –
CCN1CC(CCN2CCOCC2)C(c2ccccc2)(c2ccccc2)C1=O (centres unmarked) [Doxapram hydrochloride] | > 50 | –
C=CC(=C)CC/C=C(\C)CC/C=C(/C)C=O [Orange terpenes] | 42.9 | –
Cc1c[nH]cn1 [4-Methylimidazole] | – | CC50 at 24 h (AC50 (uM) modified / 1000, Tox21_110001=Tox21_201048, viability, 1 nM T3 present, 24 h): > 90 µM
O=c1c2ccccc2[se]n1-c1ccccc1 [Ebselen] | 19.6 | –
CC(=O)N(CC(C)C(=O)O)c1c(I)cc(I)c(N)c1I (centres unmarked) [Iocetamic acid] | > 20 | –
CC(=O)/C=C/C1C(C)=CCCC1(C)C (stereo not drawn) [alpha-Ionone] | > 90 | –
CCOP(=S)(OCC)Oc1nc(Cl)c(Cl)cc1Cl [Chlorpyrifos] | – | CC50 at 24 h (AC50 (uM) modified / 1000, Tox21_110001=Tox21_202383, viability, 1 nM T3 present, 24 h): 53.7 µM; CC50 at 24 h (AC50 (uM) modified / 1000, Tox21_110001=Tox21_300148, viability, 1 nM T3 present, 24 h): 81.6 µM
Cc1nnc2n1-c1ccc(Cl)cc1C(c1ccccc1)=NC2 [Alprazolam] | > 50 | –
S=C=Nc1ccc(N=C=S)cc1 [Bitoscanate] | > 50 | –
Cc1oc(C)c(C(=O)Nc2ccccc2)c1C [Methfuroxam] | > 90 | –
CC1(C)Oc2ccc(C#N)cc2[C@@H](N2CCCC2=O)[C@@H]1O [Levcromakalim] | > 50 | –
CCCCCCCCCCCC[N+](C)(C)CCCS(=O)(=O)O | 55.3 | –
CCCC(=O)N1CCCN(c2nc(N)c3cc(OC)c(OC)cc3n2)CC1 [Bunazosin hydrochloride] | > 50 | –
C1COCCO1 [1,4-Dioxane] | > 90 | –
CC(=O)Nc1ccc(OCCOCCOc2ccc(NC(C)=O)cc2)cc1 [Diamfenetide] | > 50 | –
Cc1cc(O)c(C(C)C)cc1Cl [6-Chlorothymol] | 66.1 | –
CCCCCCCCCBr [n-Nonyl bromide] | – | CC50 at 24 h (AC50 (uM) modified / 1000, Tox21_110001=Tox21_202864, viability, 1 nM T3 present, 24 h): > 90 µM
CCCCCCOC(=O)c1ccccc1 [Hexyl benzoate] | > 90 | –
O=C1c2ccccc2C(=O)c2cc(O)ccc21 [2-Hydroxyanthraquinone] | > 90 | –
CN(C)Cc1ccccc1 [N,N-Dimethylbenzylamine] | > 50 | –
